Activity calls are given as the source filed them. The rule behind the calls is not given here.
How the values were obtained:
[1] = tested on: Mycobacterium tuberculosis; test: Reduction in intracellular dipeptide D-alanyl-D-alanine pool size in Mycobacterium tuberculosis H37Rv up to 5 times MIC by filter-based mass spectrometry technique; format: functional, organism-based
[2] = Drug metabolism in Mycobacterium tuberculosis H37Rv assessed as compound remaining at 0.25 to 5 times MIC for 16 hrs measured 15 to 60 mins post compound washout; format: ADME, organism-based; settings: Mycobacterium tuberculosis H37Rv cells, read-out: Stability
[3] = target: T1, D-alanine--D-alanine ligase (Mycobacterium tuberculosis) (UniProt P9WP31); test: Inhibition of D-alanine-D-alanine ligase in Mycobacterium tuberculosis H37Rv assessed as inhibition of denovo D-Alanyl-D-alanine synthesis at 2 times MIC preincubated for 16 hrs followed L-Ala-[13C]-[3H] addition measured over 8 hrs by LC-MS/MS analysis
T1 sequence (whole entry): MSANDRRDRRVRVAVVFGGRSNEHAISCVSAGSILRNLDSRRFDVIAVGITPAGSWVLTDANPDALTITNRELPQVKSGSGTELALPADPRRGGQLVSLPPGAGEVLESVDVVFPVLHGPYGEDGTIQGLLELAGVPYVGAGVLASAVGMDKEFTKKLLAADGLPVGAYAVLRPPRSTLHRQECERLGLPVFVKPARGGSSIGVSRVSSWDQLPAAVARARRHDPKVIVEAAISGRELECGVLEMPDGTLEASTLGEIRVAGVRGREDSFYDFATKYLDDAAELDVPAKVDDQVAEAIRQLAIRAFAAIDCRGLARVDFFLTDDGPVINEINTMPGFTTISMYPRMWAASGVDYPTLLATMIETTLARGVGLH

[4] = target: T1, D-alanine--D-alanine ligase (Mycobacterium tuberculosis); test: Inhibition of D-alanine-D-alanine ligase in Mycobacterium tuberculosis H37Rv assessed as inhibition of denovo D-Alanyl-D-alanine synthesis at MIC preincubated for 16 hrs followed by L-Ala-[13C]-[3H] addition measured over 8 hrs by LC-MS/MS analysis
[5] = target: T2, Alanine racemase (Mycobacterium tuberculosis) (UniProt P9WQA9); test: Inhibition of alanine racemase in Mycobacterium tuberculosis H37Rv at 5 times MIC preincubated for 16 hrs followed by compound re-addition with L-Ala-[13C]-[3H] measured over 8 hrs by LC-MS/MS analysis
T2 sequence (whole entry): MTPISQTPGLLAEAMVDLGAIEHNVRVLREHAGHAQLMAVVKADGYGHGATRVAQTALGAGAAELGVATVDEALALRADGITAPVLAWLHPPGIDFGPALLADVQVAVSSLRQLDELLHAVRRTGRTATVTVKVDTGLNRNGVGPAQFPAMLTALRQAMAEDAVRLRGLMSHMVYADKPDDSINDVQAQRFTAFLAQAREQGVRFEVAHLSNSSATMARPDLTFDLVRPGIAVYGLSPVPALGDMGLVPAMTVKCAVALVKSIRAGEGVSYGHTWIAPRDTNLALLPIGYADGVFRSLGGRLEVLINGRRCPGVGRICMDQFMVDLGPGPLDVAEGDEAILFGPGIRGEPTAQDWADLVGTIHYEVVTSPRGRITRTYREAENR

[6] = target: T1, D-alanine--D-alanine ligase (Mycobacterium tuberculosis); test: Inhibition of D-alanine-D-alanine ligase in Mycobacterium tuberculosis H37Rv assessed as depletion in D-Alanyl-D-alanine level preincubated for 16 hrs measured post 24 hrs of compound washout
[7] = tested on: Mycobacterium tuberculosis; test: Reduction in intracellular total Alanine pool size in Mycobacterium tuberculosis H37Rv at 0.25 to 5 times MIC by filter-based technique; format: functional, organism-based
[8] = target: T1, D-alanine--D-alanine ligase (Mycobacterium tuberculosis); test: Competitive inhibition of D-alanine-D-alanine ligase in Mycobacterium tuberculosis H37Rv at MIC preincubated for 16 hrs followed by D-Ala-[2H] addition measured over 8 hrs by LC-MS/MS analysis
[9] = tested on: Mycobacterium tuberculosis; test: Antimycobacterial activity against Mycobacterium tuberculosis H37Rv at 0.25 to 16 times MIC after 7 days in presence of L-Alanine; format: functional, organism-based
[10] = tested on: Mycobacterium tuberculosis; test: Antimycobacterial activity against Mycobacterium tuberculosis H37Rv at 0.25 to 16 times MIC after 7 days in presence of D-Alanine; format: functional, organism-based
[11] = tested on: Mycobacterium tuberculosis; test: Ratio of MIC for Mycobacterium tuberculosis H37Rv in presence of D-Alanine to MIC for Mycobacterium tuberculosis H37Rv; format: functional
[12] = tested on: Mycobacterium tuberculosis; test: Reduction in intracellular dipeptide D-alanyl-D-alanine pool size in Mycobacterium tuberculosis H37Rv at MIC by filter-based mass spectrometry technique; format: functional, organism-based
[13] = tested on: Mycobacterium tuberculosis; test: Reduction in intracellular total Alanine pool size in Mycobacterium tuberculosis H37Rv at MIC by filter-based mass spectrometry technique; format: functional, organism-based

CN[C@@H]1[C@H](O[C@H]2[C@H](O[C@H]3[C@H](O)[C@@H](O)[C@H](N=C(N)N)[C@@H](O)[C@@H]3N=C(N)N)O[C@@H](C)[C@]2(O)C=O)O[C@@H](CO)[C@H](O)[C@H]1O
Activity [1]: inactive

N[C@@H]1CON=C1O [CYCLOSERINE]
remaining at 16 h [2]: < 10%

N[C@@H]1CONC1=O [CYCLOSERINE]
inhibition [3]: Active | inhibition [4]: Active | inhibition [5]: inactive | inhibition [6]: Dose-dependent effect | Activity [7]: Active | Activity [8]: inactive | Activity [9]: Active | Activity [10]: inactive | Activity [1]: Dose-dependent effect | Ratio [11]: 2

N[C@H]1CONC1=O [LEVCYCLOSERINE]
Activity [9]: inactive | Activity [10]: inactive | Activity [12]: Active | Ratio [11]: 4 | Activity [13]: Active
